How the values were obtained:
Assay type in all cases: in vivo
[1] = tested on: A549 human lung carcinoma cells; test: A549 non-small cell lung cancer xenograft model; details: Compound A 30 mg/kg qd
Protocol: (§1) Female and male athymic nude mice (NCr) 5-8 weeks of age and weighing approximately 20-25 g were used in the following model. Prior to initiation of a study, the animals were allowed to acclimate for a minimum of 48 h. During these studies, animals were provided food and water ad libitum and housed in a room conditioned at 70-75° F. and 60% relative humidity. A 12 h light and 12 h dark cycle was maintained with automatic timers. All animals were examined daily for compound-induced or tumor-related deaths.
(§2) A549 human lung carcinoma cells were cultured in vitro in DMEM (Mediatech) supplemented with 10% Fetal Bovine Serum (Hyclone), PenicilliN-Streptomycin and non-essential amino acids at 37° C. in a humidified 5% CO2 atmosphere. […] A transponder was implanted in each mouse for identification, and animals were monitored daily for clinical symptoms and survival. Body weights were recorded daily. […]
(§3) For subcutaneous or intradermal tumors, the mean tumor weight of each animal in the respective control and treatment groups was determined twice weekly during the study. Tumor weight (TW) was determined by measuring perpendicular diameters with a caliper, using the following formula: tumor weight (mg)=[tumor volume=length (mm)×width^2 (mm^2)]/2
(§4) Percent inhibition of tumor growth (TGI) is determined with the following formula: […]

[2] = tested on: MCF7 human mammary adenocarcinoma cells; test: MCF7 breast cancer xenograft model; details: MCF7 tumors at end of study, 30 mg/kg qd each agent, alone or combined
Protocol: as §1
MCF7 human mammary adenocarcinoma cells were cultured in vitro in DMEM (Cellgro) supplemented with 10% Fetal Bovine Serum (Cellgro), Penicillin-Streptomycin and non-essential amino acids at 37° C. in a humidified 5% CO2 atmosphere. […] A transponder was implanted into each mouse for identification and data tracking, and animals were monitored daily for clinical symptoms and survival. During the dosing period, the tumor weight of each animal was determined twice weekly and the body weight of each animal was measured daily. […]
as §3, with “(mm^2)]/2 […]” for “(mm^2)]/2”

[3] = tested on: Calu-6 human lung anaplastic carcinoma cells; test: Calu-6 non-small cell lung cancer xenograft model; details: Calu-6 xenograft, single agents; Compound A 100 mg/kg q2d or 30 mg/kg bid oral; carboplatin 50 mg/kg i.v. q4d
Protocol: as §1
as §2, with “Calu-6” for “A549”, “lung anaplastic” for “lung”, “Penicillin-Streptomycin” for “PenicilliN-Streptomycin”, “humidified,” for “humidified”
as §3, §4

[4] = tested on: MDA-MB-468 human breast adenocarcinoma cells; details: MDA-MB-468 xenograft; erlotinib 100 mg/kg qd oral; Compound A 100 mg/kg q2d oral; combination of the two
Protocol: as §1, with “deaths. […]” for “deaths.”
as §3
Percent inhibition of tumor growth (TGI) is determined with the following formula:
[formula] • where X0=average TW of all tumors on group day • Xf=TW of treated group on Day f • Yf=TW of vehicle control group on Day f If tumors regress below their starting sizes, then the percent tumor regression is determined with the following formula:
[formula] Tumor size is calculated individually for each tumor to obtain a mean±SEM value for each experimental group. […]

[5] = tested on: PC-3 human prostate adenocarcinoma cells
Protocol: as §1
as §2, with “PC-3” for “A549”, “prostate adenocarcinoma” for “lung carcinoma”, “20%” for “10%”, “Penicillin-Streptomycin” for “PenicilliN-Streptomycin”
as §3, §4

## COc1cc2c(Nc3ccc(Cl)c(Cl)c3F)ncnc2cc1OC[C@@H]1C[C@@H]2CN(C)C[C@@H]2C1 [Compound B, N-(3,4-dichloro-2-fluorophenyl)-7-({[(3aR,5r,6aS)-2-methyloctahydrocyclopenta-[c]pyrrol-5-yl]methyl}oxy)-6-(methyloxy)quinazolin-4-amine]
[1]; Compound B 30 mg/kg qd oral for 18 days, combination: Compound B followed by Compound A after about six hours
  tumor growth inhibition (TGI) (FIG. 4a): 80%
[1]; Compound B 30 mg/kg qd, alone or co-administered
  dose skipping: no dose omission
[2]; compared to vehicle control
  induction of TUNEL-positive (apoptotic) cells: did not result in a significant induction
[2]
  decrease in CD31-positive tumor vessels (microvessel density, MVD): 31%

## N.N.O=C([O-])C1(C(=O)[O-])CCC1.[Pt+2] [carboplatin]
[3]
  tumor growth inhibition (FIG. 3): Significant tumor growth inhibition

## C#Cc1cccc(Nc2ncnc3cc(OCCOC)c(OCCOC)cc23)c1 [erlotinib]
[4]
  tumor growth inhibition (FIG. 5): significant but incomplete tumor growth inhibition

## CO[C@H]1C[C@@H]2CC[C@@H](C)[C@@](O)(O2)C(=O)C(=O)N2CCCC[C@H]2C(=O)O[C@H]([C@H](C)C[C@@H]2CC[C@@H](O)[C@H](OC)C2)CC(=O)[C@H](C)/C=C(\C)[C@@H](O)[C@@H](OC)C(=O)[C@H](C)C[C@H](C)/C=C/C=C/C=C/1C [rapamycin, Rapamycin]
[5]; PC-3 tumors resected at end of efficacy study, Compound A 100 mg/kg q2d, rapamycin, monotherapy or combined
  decrease in the fraction of proliferating cells (Ki67) (FIG. 6): 77%

## CC(=O)O[C@H]1C(=O)[C@@]2(C)[C@H]([C@H](OC(=O)c3ccccc3)[C@]3(O)C[C@H](OC(=O)[C@H](O)[C@@H](NC(=O)c4ccccc4)c4ccccc4)C(C)=C1C3(C)C)[C@]1(OC(C)=O)CO[C@@H]1C[C@@H]2O [taxol, Paclitaxel]
[5]; PC-3 xenograft, Compound A 100 mg/kg q2d or 30 mg/kg bid oral, taxol 7.5 mg/kg i.v. twice weekly, combination of either dose of Compound A with taxol
  tumor growth inhibition (FIG. 1): Comparable tumor growth inhibition
